Reference: a melting point compilation (Tetko et al.; mined from patent text by program, amines drawn as free bases though some values may be those of a salt)

Row | melting point [°C] | SMILES
1 | 169 to 170 | COc1cc(Oc2ccc(S(C)(=O)=O)cc2)cc2cc(C3=NCC(CC(N)=O)S3)[nH]c12 (stereo not drawn)
2 | 98 to 99 | COc1ccc(C(=O)c2sccc2OC)cc1
3 | 154 | CCOC(=O)c1cn(C)c2cnc3cc(F)c(N4CCN(C(=O)CC(F)(F)F)C(c5ccc(OCc6ccccc6)c(OC)c5)C4)cc3c2c1=O (stereo not drawn)
4 | 103 to 105 | CCOC(=O)Cc1c(C)n(-c2ncnc3cc(Cl)ccc23)c2ccc(OC)cc12
5 | 148 to 150 | COc1ccc2[nH]c3ccccc3c2c1
6 | 206 to 208 | Cc1ccc(CC2CCN(C(=O)CNc3ccc4c(c3)OCC(=O)N4)CC2)cc1
7 | 266 to 267 | CCn1c(=O)c2[nH]c(/C=C/c3cccc(OC(F)(F)F)c3)nc2n(CC)c1=O
8 | 167 | COc1ccc(C(=O)CN2CCNC2=O)cc1OC
9 | 198 to 202 | CCCCn1c(=O)c2ncn(C)c2c2cccnc21
10 | 149 to 150 | Fc1ccc(-c2ncn(CCCN3CCOCC3)c2-c2ccncc2)cc1
11 | 60 to 61 | COC(=O)/C=C(\Oc1ccc(F)cc1)C(=O)OC
12 | 59 to 60 | COc1cc(Br)c(OC)c(CO)c1
13 | 172 to 173 | COC(=O)c1sc(Nc2ccc(Cl)cc2)nc1C
14 | 235 to 237 | N#Cc1cc(F)cc(-c2ccc3c(c2)C2(CCCC2)C(=O)N3)c1
15 | 152 | CCOC(=O)c1cc(OCc2ccccc2)c2nc(C)n(C)c2c1

Further lines, the compound ahead of its results:

Row | SMILES | melting point [°C]
16 | CCC(=O)OC1(C(=O)CO)CCC2C3CC(C)C4=CC(=O)CCC4(C)C3C(O)CC21C (stereo not drawn) | 197
17 | CC(c1ccc(Cl)cc1Cl)C1(c2cccnc2)OC=CC1=O (stereo not drawn) | 111 to 112
18 | CC1=C2C(Br)CC3C4CCCC4(C)CCC3C2(C)CCC1=O (stereo not drawn) | 124 to 125
19 | CSCCOc1c(-c2ccc(S(C)(=O)=O)cc2)cnn(CC(F)(F)F)c1=O | 103 to 105
20 | Cc1c(NC(=O)CC(C)(C)C)c(C)c2c(c1-c1ccc(N(C)C)nc1)OCC2c1ccc(C(C)C)cc1 (stereo not drawn) | 217 to 220
21 | CCCCCCCCC1C=CC(/C(C)=C/c2ccc(C(=O)O)o2)=C2N=C3CCCCC3=C21 (stereo not drawn) | 152 to 154
22 | N#Cc1ccc2nc(C(=O)NCc3cccc(CNC(=O)c4nc[nH]n4)c3)[nH]c(=O)c2c1 | 218 to 219
23 | [N-]=[N+]=Nc1cnn(-c2cc(-c3ccnc(Nc4cccc(Cl)c4)n3)ccn2)c(=O)c1Cl | 184 to 186
24 | Cc1nc2c3c(ccn2c1C)C(=O)[C@H](OC(=O)C(C)(C)C)[C@@H](c1ccccc1)N3 | 185 to 187
25 | COc1ccc(-c2nc(SC)ncc2-c2ccc(Cl)cc2)cc1 | 127 to 130
26 | O=C(O)/C=C/C(=O)c1ccoc1 | 104 to 106
27 | BrCC=C(c1ccc(I)cc1)c1ccc(I)cc1 | 105 to 109
28 | CC(C)(C)c1cc(SCC(=O)Nc2c(Cl)cccc2Cl)cc(C(C)(C)C)c1O | 168 to 170
29 | O=C(Cl)c1sc2cc(Oc3ccccc3)ccc2c1Cl | 121 to 123
30 | CCCCc1nc2cc3ccccc3cc2[nH]1 | 190
31 | COC(=O)[C@@H]1C[C@H](OC(=O)C(C)C)C(=O)[C@H]2[C@@]1(C)CC[C@H]1C(=O)O[C@H](c3ccoc3)C[C@]21C | 155 to 157
32 | CCN(CC)c1ccc2c(C)c(C#Cc3ccccc3)c(=O)oc2c1 | 142 to 144
33 | Cc1c(C)c2c(c(C)c1NC(=O)c1ccc(C(=O)O)cc1)C(c1ccc(C(C)C)cc1)C(C)(C)O2 (stereo not drawn) | 258 to 261
34 | CCC(C)CNc1nc2ccc(Sc3nnc4n3N=C(c3ccc(F)cc3)CC4)cc2s1 (stereo not drawn) | 220
35 | CS(=O)(=O)c1ccc(-c2cnn(Cc3ccccc3)c(=O)c2-c2ccc(Cl)cc2)cc1 | 157 to 159
36 | Cc1c(N2CC[C@H](NC(=O)OC(C)(C)C)C2)c(F)c(N)c2c(=O)c(C(=O)O)cn(C3CC3)c12 | 135 to 136
37 | CC12CC(N3CCC(=O)CC3)C(O)CC1CCC1C2CCC2(C)C(O)C(N3CCCC3)CC12 (stereo not drawn) | 136 to 138
38 | Cc1nnc2n1-c1ccc(Cl)cc1C(c1ccccc1)S2 (stereo not drawn) | 237
